The values below come from ChEMBL document CHEMBL1141772, “Oxygenated terpenoids from a formosan soft coral Sinularia gibberosa” (2005).

Converted amounts (≈) assume the structure as drawn. The source made the active and inactive calls. The rule behind the calls is not given here. Some results are limits rather than exact numbers.

A short description of experiment [1]: Cytotoxicity against human HEPA 59T/VGH cells by MTT assay. The class given is functional. The conditions noted are these: read-out: ED50 (the source's name).
Another experiment deals with KB. The experiment is described as follows: Cytotoxicity against human KB cells by MTT assay. Type of experiment: functional. Background: Tetrazolium assays rely on reduction of a dye to a coloured formazan, in cell work by metabolically active cells.

For `CC(C)[C@]12C=C3[C@](C)(O)CC[C@]3(OO1)[C@@H](C)CC2` (relative stereo) [PEROXYGIBBEROL], the EC50 in experiment [1] was 8.2 µg/mL (≈ 32.5 µM). Also, the outcome with KB was inactive.
For `CC(=O)CC[C@@H]1C(=O)C=C(C(C)C)CC[C@@H]1C` [GIBBERODIONE], the EC50 (in experiment [1]; with KB (read-out: ED50 (the source's name))) was more than 30 µg/mL throughout.
As for `C=C1CC/C=C(\C)C[C@H](O)/C(C(C)C)=C\[C@H]2[C@H]1CC[C@]2(C)O` [SARCOPHYTOL L], the EC50 in experiment [1] came to 12.6 µg/mL (≈ 41.4 µM). The outcome with KB was inactive.
